According to patent US12404262B2 (priority 2021, dated 2025):

Settings: 1.0% DMSO, 24-hour incubation at ambient temperature, maximum theoretical 100 μM; for pH 2 solubility: 0.1N HCl, first value of the cell; for pH 7 solubility: 1×PBS buffer (pH 7.4), second value of the cell

pH 2 solubility	pH 7 solubility	Structure (SMILES)
1/1 μM	1/1 μM	CC(C)(C#Cc1ccc(-c2ccc(Cl)c3c(N(CCO)S(C)(=O)=O)nn(CC(F)(F)F)c23)c([C@H](Cc2cc(F)cc(F)c2)NC(=O)Cn2nc(C(F)(F)F)c3c2C(F)(F)[C@@H]2C[C@H]32)n1)S(C)(=O)=O [Compound 18, N—((S)-1-(3-(4-chloro-3-(N-(2-hydroxyethyl)methylsulfonamido)-1-(2,2,2-trifluoroethyl)-1H-indazol-7-yl)-6-(3-methyl-3-(methylsulfonyl)but-1-yn-1-yl)pyridin-2-yl)-2-(3,5-difluorophenyl)ethyl)-2-((3bS,4aR)-5,5-difluoro-3-(trifluoromethyl)-3b,4,4a,5-tetrahydro-1H-cyclopropa[3,4]cyclopenta[1,2-c]pyrazol-1-yl)acetamide]
1 μM	100 μM	CC(C)(C#Cc1ccc(-c2ccc(Cl)c3c(N(CCOP(=O)(O)O)S(C)(=O)=O)nn(CC(F)(F)F)c23)c([C@H](Cc2cc(F)cc(F)c2)NC(=O)Cn2nc(C(F)(F)F)c3c2C(F)(F)[C@@H]2C[C@H]32)n1)S(C)(=O)=O [Compound 19, 2-(N-(4-chloro-7-(2-((S)-1-(2-((3bS,4aR)-5,5-difluoro-3-(trifluoromethyl)-3b,4,4a,5-tetrahydro-1H-cyclopropa[3,4]cyclopenta[1,2-c]pyrazol-1-yl)acetamido)-2-(3,5-difluorophenyl)ethyl)-6-(3-methyl-3-(methylsulfonyl)but-1-yn-1-yl)pyridin-3-yl)-1-(2,2,2-trifluoroethyl)-1H-indazol-3-yl)methylsulfonamido)ethyl dihydrogen phosphate]
86 μM	1 μM	CC(C)(C#Cc1ccc(-c2ccc(Cl)c3c(N(COC(=O)CCP(=O)(O)O)S(C)(=O)=O)nn(CC(F)(F)F)c23)c([C@H](Cc2cc(F)cc(F)c2)NC(=O)Cn2nc(C(F)(F)F)c3c2C(F)(F)[C@@H]2C[C@H]32)n1)S(C)(=O)=O [Compound 21, (3-((N-(4-chloro-7-(2-((S)-1-(2-((3bS,4aR)-5,5-difluoro-3-(trifluoromethyl)-3b,4,4a,5-tetrahydro-1H-cyclopropa[3,4]cyclopenta[1,2-c]pyrazol-1-yl)acetamido)-2-(3,5-difluorophenyl)ethyl)-6-(3-methyl-3-(methylsulfonyl)but-1-yn-1-yl)pyridin-3-yl)-1-(2,2,2-trifluoroethyl)-1H-indazol-3-yl)methylsulfonamido)methoxy)-3-oxopropyl)phosphonic acid]
45 μM	3 μM	C[C@@H](C(=O)OCN(c1nn(CC(F)(F)F)c2c(-c3ccc(C#CC(C)(C)S(C)(=O)=O)nc3[C@H](Cc3cc(F)cc(F)c3)NC(=O)Cn3nc(C(F)(F)F)c4c3C(F)(F)[C@@H]3C[C@H]43)ccc(Cl)c12)S(C)(=O)=O)N(C)C [Compound 22, (N-(4-chloro-7-(2-((S)-1-(2-((3bS,4aR)-5,5-difluoro-3-(trifluoromethyl)-3b,4,4a,5-tetrahydro-1H-cyclopropa[3,4]cyclopenta[1,2-c]pyrazol-1-yl)acetamido)-2-(3,5-difluorophenyl)ethyl)-6-(3-methyl-3-(methylsulfonyl)but-1-yn-1-yl)pyridin-3-yl)-1-(2,2,2-trifluoroethyl)-1H-indazol-3-yl)methylsulfonamido)methyl dimethyl-L-alaninate]
1/1 μM	1/1 μM	CC(C)(CO)C(=O)OCN(c1nn(CC(F)(F)F)c2c(-c3ccc(C#CC(C)(C)S(C)(=O)=O)nc3[C@H](Cc3cc(F)cc(F)c3)NC(=O)Cn3nc(C(F)(F)F)c4c3C(F)(F)[C@@H]3C[C@H]43)ccc(Cl)c12)S(C)(=O)=O [Compound 24, (N-(4-chloro-7-(2-((S)-1-(2-((3bS,4aR)-5,5-difluoro-3-(trifluoromethyl)-3b,4,4a,5-tetrahydro-1H-cyclopropa[3,4]cyclopenta[1,2-c]pyrazol-1-yl)acetamido)-2-(3,5-difluorophenyl)ethyl)-6-(3-methyl-3-(methylsulfonyl)but-1-yn-1-yl)pyridin-3-yl)-1-(2,2,2-trifluoroethyl)-1H-indazol-3-yl)methylsulfonamido)methyl 3-hydroxy-2,2-dimethylpropanoate]
1 μM	73 μM	CC(C)(COP(=O)(O)O)C(=O)OCN(c1nn(CC(F)(F)F)c2c(-c3ccc(C#CC(C)(C)S(C)(=O)=O)nc3[C@H](Cc3cc(F)cc(F)c3)NC(=O)Cn3nc(C(F)(F)F)c4c3C(F)(F)[C@@H]3C[C@H]43)ccc(Cl)c12)S(C)(=O)=O [Compound 25, (N-(4-chloro-7-(2-((S)-1-(2-((3bS,4aR)-5,5-difluoro-3-(trifluoromethyl)-3b,4,4a,5-tetrahydro-1H-cyclopropa[3,4]cyclopenta[1,2-c]pyrazol-1-yl)acetamido)-2-(3,5-difluorophenyl)ethyl)-6-(3-methyl-3-(methylsulfonyl)but-1-yn-1-yl)pyridin-3-yl)-1-(2,2,2-trifluoroethyl)-1H-indazol-3-yl)methylsulfonamido)methyl 2,2-dimethyl-3-(phosphonooxy)propanoate]
20 μM	2 μM	C[C@H](N)C(=O)OCN(c1nn(CC(F)(F)F)c2c(-c3ccc(C#CC(C)(C)S(C)(=O)=O)nc3[C@H](Cc3cc(F)cc(F)c3)NC(=O)Cn3nc(C(F)(F)F)c4c3C(F)(F)[C@@H]3C[C@H]43)ccc(Cl)c12)S(C)(=O)=O [Compound 27, (N-(4-chloro-7-(2-((S)-1-(2-((3bS,4aR)-5,5-difluoro-3-(trifluoromethyl)-3b,4,4a,5-tetrahydro-1H-cyclopropa[3,4]cyclopenta[1,2-c]pyrazol-1-yl)acetamido)-2-(3,5-difluorophenyl)ethyl)-6-(3-methyl-3-(methylsulfonyl)but-1-yn-1-yl)pyridin-3-yl)-1-(2,2,2-trifluoroethyl)-1H-indazol-3-yl)methylsulfonamido)methyl L-alaninate]
29 μM	1 μM	CC(C)[C@H](N)C(=O)OCN(c1nn(CC(F)(F)F)c2c(-c3ccc(C#CC(C)(C)S(C)(=O)=O)nc3[C@H](Cc3cc(F)cc(F)c3)NC(=O)Cn3nc(C(F)(F)F)c4c3C(F)(F)[C@@H]3C[C@H]43)ccc(Cl)c12)S(C)(=O)=O [Compound 28, (N-(4-chloro-7-(2-((S)-1-(2-((3bS,4aR)-5,5-difluoro-3-(trifluoromethyl)-3b,4,4a,5-tetrahydro-1H-cyclopropa[3,4]cyclopenta[1,2-c]pyrazol-1-yl)acetamido)-2-(3,5-difluorophenyl)ethyl)-6-(3-methyl-3-(methylsulfonyl)but-1-yn-1-yl)pyridin-3-yl)-1-(2,2,2-trifluoroethyl)-1H-indazol-3-yl)methylsulfonamido)methyl L-valinate]
1/1 μM	1/1 μM	CC(C)(C)C(=O)OCN(c1nn(CC(F)(F)F)c2c(-c3ccc(C#CC(C)(C)S(C)(=O)=O)nc3[C@H](Cc3cc(F)cc(F)c3)NC(=O)Cn3nc(C(F)(F)F)c4c3C(F)(F)[C@@H]3C[C@H]43)ccc(Cl)c12)S(C)(=O)=O [Compound 30, (N-(4-chloro-7-(2-((S)-1-(2-((3bS,4aR)-5,5-difluoro-3-(trifluoromethyl)-3b,4,4a,5-tetrahydro-1H-cyclopropa[3,4]cyclopenta[1,2-c]pyrazol-1-yl)acetamido)-2-(3,5-difluorophenyl)ethyl)-6-(3-methyl-3-(methylsulfonyl)but-1-yn-1-yl)pyridin-3-yl)-1-(2,2,2-trifluoroethyl)-1H-indazol-3-yl)methylsulfonamido)methyl pivalate]
1/1 μM	1/1 μM	CC(C)(O)CNC(=O)N(c1nn(CC(F)(F)F)c2c(-c3ccc(C#CC(C)(C)S(C)(=O)=O)nc3[C@H](Cc3cc(F)cc(F)c3)NC(=O)Cn3nc(C(F)(F)F)c4c3C(F)(F)[C@@H]3C[C@H]43)ccc(Cl)c12)S(C)(=O)=O [Compound 32, N—((S)-1-(3-(4-chloro-3-(N-((2-hydroxy-2-methylpropyl)carbamoyl)methylsulfonamido)-1-(2,2,2-trifluoroethyl)-1H-indazol-7-yl)-6-(3-methyl-3-(methylsulfonyl)but-1-yn-1-yl)pyridin-2-yl)-2-(3,5-difluorophenyl)ethyl)-2-((3bS,4aR)-5,5-difluoro-3-(trifluoromethyl)-3b,4,4a,5-tetrahydro-1H-cyclopropa[3,4]cyclopenta[1,2-c]pyrazol-1-yl)acetamide]
6 μM	16 μM	CC(C)(CNC(=O)N(c1nn(CC(F)(F)F)c2c(-c3ccc(C#CC(C)(C)S(C)(=O)=O)nc3[C@H](Cc3cc(F)cc(F)c3)NC(=O)Cn3nc(C(F)(F)F)c4c3C(F)(F)[C@@H]3C[C@H]43)ccc(Cl)c12)S(C)(=O)=O)OP(=O)(O)O [Compound 33, 1-(3-(4-chloro-7-(2-((S)-1-(2-((3bS,4aR)-5,5-difluoro-3-(trifluoromethyl)-3b,4,4a,5-tetrahydro-1H-cyclopropa[3,4]cyclopenta[1,2-c]pyrazol-1-yl)acetamido)-2-(3,5-difluorophenyl)ethyl)-6-(3-methyl-3-(methylsulfonyl)but-1-yn-1-yl)pyridin-3-yl)-1-(2,2,2-trifluoroethyl)-1H-indazol-3-yl)-3-(methylsulfonyl)ureido)-2-methylpropan-2-yl dihydrogen phosphate]

Structure (SMILES)	pH 2 solubility	pH 7 solubility
CC(C)(C#Cc1ccc(-c2ccc(Cl)c3c(N(COP(=O)(O)O)S(C)(=O)=O)nn(CC(F)(F)F)c23)c([C@H](Cc2cc(F)cc(F)c2)NC(=O)Cn2nc(C(F)(F)F)c3c2C(F)(F)[C@@H]2C[C@H]32)n1)S(C)(=O)=O [Compound 23, (N-(4-chloro-7-(2-((S)-1-(2-((3bS,4aR)-5,5-difluoro-3-(trifluoromethyl)-3b,4,4a,5-tetrahydro-1H-cyclopropa[3,4]cyclopenta[1,2-c]pyrazol-1-yl)acetamido)-2-(3,5-difluorophenyl)ethyl)-6-(3-methyl-3-(methylsulfonyl)but-1-yn-1-yl)pyridin-3-yl)-1-(2,2,2-trifluoroethyl)-1H-indazol-3-yl)methylsulfonamido)methyl dihydrogen phosphate]	6 μM	100 μM
